# Laboratory results as given in US20250027035A1, “HEAVY METAL-ANTIBIOTIC MULTIPLE RESISTANT BACTERIA AND ITS APPLICATION” (priority 2023, published 2025).
# Tested on: Rossellomorea oryzaecorticis ZC255
# Assay: Drug sensitivity test of strains (antibiotic tolerance); on Results of drug sensitivity test of strains: key: R: resistance; S: sensitivity; I: betweenness
# Type: cell-based
# Conditions: not given
Compound,Results of drug sensitivity test of strains,"drug sensitivity of the strain, result in words"
CC1(C)S[C@@H]2[C@H](NC(=O)[C@H](N)c3ccccc3)C(=O)N2[C@H]1C(=O)O [Ampicillin],S,–
O=C(N[C@H](CO)[C@H](O)c1ccc([N+](=O)[O-])cc1)C(Cl)Cl [Chloramphenicol],S,–
Polymyxin B,R,drug resistance
NC[C@H]1O[C@H](O[C@H]2[C@H](O)[C@@H](O[C@H]3O[C@H](CO)[C@@H](O)[C@H](N)[C@H]3O)[C@H](N)C[C@@H]2N)[C@H](O)[C@@H](O)[C@@H]1O [Kanamycin],R,–
CCn1cc(C(=O)O)c(=O)c2cc(F)c(N3CCNCC3)cc21 [Norfloxacin],R,drug resistance
CO[C@H]1/C=C/O[C@@]2(C)Oc3c(C)c(O)c4c(O)c(c(/C=N/N5CCN(C)CC5)c(O)c4c3C2=O)NC(=O)/C(C)=C\C=C\[C@H](C)[C@H](O)[C@@H](C)[C@@H](O)[C@@H](C)[C@H](OC(C)=O)[C@@H]1C [Rifampicin],I,–
Penicillin,S,–
CC1(C)S[C@@H]2[C@H](NC(=O)C(C(=O)O)c3ccccc3)C(=O)N2[C@H]1C(=O)O (stereo partly shown) [Carbenicillin],S,–
CN[C@H](CC(C)C)C(=O)N[C@H]1C(=O)N[C@@H](CC(N)=O)C(=O)N[C@H]2C(=O)N[C@H]3C(=O)N[C@H](C(=O)N[C@H](C(=O)O)c4cc(O)cc(O)c4-c4cc3ccc4O)[C@H](O)c3ccc(c(Cl)c3)Oc3cc2cc(c3O[C@@H]2O[C@H](CO)[C@@H](O)[C@H](O)[C@H]2O[C@H]2C[C@](C)(N)[C@H](O)[C@H](C)O2)Oc2ccc(cc2Cl)[C@H]1O [Vancomycin],S,–
[H]/N=C(/N)N[C@H]1[C@H](O)[C@@H](O)[C@H](O[C@@H]2O[C@@H](C)[C@](O)(C=O)[C@H]2O[C@@H]2O[C@@H](CO)[C@H](O)[C@@H](O)[C@@H]2NC)[C@@H](N/C(N)=N\[H])[C@@H]1O [Streptomycin],R,drug resistance
CCC[C@@H]1C[C@@H](C(=O)N[C@@H]([C@H]2O[C@H](SC)[C@H](O)[C@@H](O)[C@H]2O)[C@@H](C)O)N(C)C1 [Lincomycin],R,drug resistance
CN(C)[C@@H]1C(O)=C(C(N)=O)C(=O)[C@@]2(O)C(O)=C3C(=O)c4c(O)cccc4[C@@](C)(O)[C@H]3C[C@@H]12 [Tetracycline],R,–
NC[C@H]1O[C@H](O[C@H]2[C@H](O)[C@@H](O[C@H]3O[C@H](CO)[C@@H](O)[C@H](N)[C@H]3O)[C@H](N)C[C@@H]2N)[C@H](N)C[C@@H]1O [Tobramycin],R,drug resistance
CC1COc2c(N3CCN(C)CC3)c(F)cc3c(=O)c(C(=O)O)cn1c23 (stereo not shown) [Ofloxacin],R,–
CC[C@H]1OC(=O)[C@H](C)[C@@H](O[C@H]2C[C@@](C)(OC)[C@@H](O)[C@H](C)O2)[C@H](C)[C@@H](O[C@@H]2O[C@H](C)C[C@H](N(C)C)[C@H]2O)[C@](C)(O)C[C@@H](C)C(=O)[C@H](C)[C@@H](O)[C@]1(C)O [Erythromycin],R,drug resistance
Gentamicin,R,drug resistance
CO/N=C(\C(=O)N[C@@H]1C(=O)N2C(C(=O)O)=C(COC(C)=O)CS[C@H]12)c1csc(N)n1 [Cefotaxime],I,–
CO/N=C(\C(=O)N[C@@H]1C(=O)N2C(C(=O)O)=C(CSc3nc(=O)c(=O)[nH]n3C)CS[C@H]12)c1csc(N)n1 [Ceftriaxone],R,drug resistance
Neomycin,R,drug resistance
CC[C@H]1OC(=O)[C@H](C)[C@@H](O[C@H]2C[C@@](C)(OC)[C@@H](O)[C@H](C)O2)[C@H](C)[C@@H](O[C@@H]2O[C@H](C)C[C@H](N(C)C)[C@H]2O)[C@](C)(OC)C[C@@H](C)C(=O)[C@H](C)[C@@H](O)[C@]1(C)O [Clarithromycin],S,–

# Tested on: Rossellomorea oryzaecorticis ZC255
# Assay: Metal tolerance of the strain in 2216E liquid medium containing heavy metal
# Type: cell-based
# Conditions: 2216E liquid medium containing the heavy metal
# Experimental: • Step 1: the single colonies in Embodiment 1 ‘2.1 morphological characteristics’ are selected and added to the 2216E liquid medium for 24 h to obtain the seed liquid, and then it is added to the liquid containing heavy metals or antibiotics for 48 h. • Step 2: the concentration of heavy metals/antibiotics before and after the addition of seed solution is measured by atomic absorption.
# In addition, the highest tolerance concentration of the strain to Cd2+is 820 mg/L; the highest tolerance concentration of Zn2+, Ni2+, Pb2+and Cr3+is 2660 mg/L, 1210 mg/L, 1640 mg/L and 400 mg/L respectively.
row,Compound,maximum (highest) tolerance concentration of the strain [mg/L]
1,[Pb+2] [Pb2+],1640
2,[Cr+3] [Cr3+],400
3,[Cd+2] [Cd2+],820
4,[Zn+2] [Zn2+],2660
5,[Ni+2] [Ni2+],1210
